Results reported in US20100120858A1, “Piperidine Derivatives” (Pfizer Inc., priority 2006, published 2010).
pKi: −log10 of the molar value.

Key:
[1] = target: human norepinephrine transporter (Homo sapiens, UniProt P23975); assay: Human norepinephrine (hNET) receptor binding, [125I]-RTI-55; conditions: membranes of HEK-293 cells transfected with human norepinephrine transporter cDNA; 50 pM [125I]-RTI-55; IC50 converted by Cheng-Prusoff
Outline: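 Membranes from HEK-293 cells expressing human NET, incubated 90 min at room temperature with 50 pM [125I]-RTI-55 and compound (10^−5 to 10^−12 M) in Krebs-HEPES pH 7.4. Nonspecific binding defined with 10 μM desipramine; filter-bound counts gave IC50, converted to Ki by Cheng-Prusoff.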

[2] = target: human serotonin transporter (Homo sapiens, UniProt P31645); assay: Human serotonin (hSERT) receptor binding, [125I]-RTI-55; conditions: membranes of HEK-293 cells transfected with human serotonin transporter cDNA, IC50 converted by Cheng-Prusoff
Outline: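 Membranes from HEK-293 cells expressing human SERT were incubated 90 min at room temperature in Krebs-HEPES buffer pH 7.4 with […] [125I]-RTI-55 and compound (10^−5 to 10^−12 M), in duplicate. Nonspecific binding defined with 10 μM citalopram; IC50 converted to Ki by Cheng-Prusoff.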

human norepinephrine transporter, sequence (P23975 whole entry): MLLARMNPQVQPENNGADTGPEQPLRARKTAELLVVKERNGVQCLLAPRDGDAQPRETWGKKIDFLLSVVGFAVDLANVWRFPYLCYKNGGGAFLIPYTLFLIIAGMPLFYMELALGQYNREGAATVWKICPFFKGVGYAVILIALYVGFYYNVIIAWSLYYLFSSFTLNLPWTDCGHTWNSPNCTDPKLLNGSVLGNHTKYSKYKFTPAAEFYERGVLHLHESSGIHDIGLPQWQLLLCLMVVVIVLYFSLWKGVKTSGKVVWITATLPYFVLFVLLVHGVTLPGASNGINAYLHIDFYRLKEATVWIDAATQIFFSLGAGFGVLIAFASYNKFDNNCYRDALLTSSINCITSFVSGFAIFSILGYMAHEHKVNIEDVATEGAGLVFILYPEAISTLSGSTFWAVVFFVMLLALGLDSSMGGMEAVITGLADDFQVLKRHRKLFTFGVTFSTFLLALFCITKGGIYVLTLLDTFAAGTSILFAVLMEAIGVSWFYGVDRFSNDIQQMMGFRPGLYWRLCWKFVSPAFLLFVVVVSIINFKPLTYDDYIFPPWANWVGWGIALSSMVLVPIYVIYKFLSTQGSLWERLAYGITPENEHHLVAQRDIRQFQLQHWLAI
human serotonin transporter, sequence (P31645 whole entry): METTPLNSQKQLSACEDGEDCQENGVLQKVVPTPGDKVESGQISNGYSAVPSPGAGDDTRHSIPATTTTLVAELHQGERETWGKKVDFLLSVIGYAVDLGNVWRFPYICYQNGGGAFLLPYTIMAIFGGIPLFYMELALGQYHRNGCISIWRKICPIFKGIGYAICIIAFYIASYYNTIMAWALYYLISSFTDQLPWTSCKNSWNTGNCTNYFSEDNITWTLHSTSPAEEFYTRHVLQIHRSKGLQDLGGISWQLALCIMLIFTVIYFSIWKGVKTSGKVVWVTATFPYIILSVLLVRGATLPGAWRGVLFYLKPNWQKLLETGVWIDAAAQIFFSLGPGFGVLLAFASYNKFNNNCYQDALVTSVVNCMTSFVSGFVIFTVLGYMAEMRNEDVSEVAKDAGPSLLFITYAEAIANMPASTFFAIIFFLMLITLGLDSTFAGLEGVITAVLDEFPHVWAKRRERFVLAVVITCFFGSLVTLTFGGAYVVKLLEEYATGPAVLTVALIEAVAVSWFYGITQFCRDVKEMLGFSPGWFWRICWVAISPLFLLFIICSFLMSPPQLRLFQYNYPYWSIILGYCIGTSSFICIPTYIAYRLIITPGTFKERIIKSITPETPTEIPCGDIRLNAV

SMILES | pKi [1] | pKi [2] | melting point
Clc1cccc(Oc2ncccc2OC[C@H]2CCCNC2)c1.O=C(O)/C=C/C(=O)O [Example 59, (S)-2-(3-chloro-phenoxy)-3-(piperidin-3-ylmethoxy)-pyridine fumaric acid] | 8.40 | 5.20 | 128 to 129 °C
Cc1ccc(Oc2ncccc2OC[C@H]2CCCNC2)cc1C.O=C(O)/C=C/C(=O)O [Example 65, (S)-2-(3,4-dimethyl-phenoxy)-3-(piperidin-3-ylmethoxy)-pyridine fumaric acid] | 8.15 | 5.66 | 169 to 170 °C
Cl.c1ccc(COc2ccccc2OC[C@H]2CCCNC2)cc1 [Example 99, (S)-3-(2-benzyloxy-phenoxymethyl)-piperidine hydrochloride] | 7.96 | 5.32 | 137 to 140 °C (dec.)
FC(F)(F)Oc1cccc(Oc2ncccc2OC[C@H]2CCCNC2)c1.O=C(O)/C=C/C(=O)O [Example 70, (S)-3-(piperidin-3-ylmethoxy)-2-(3-trifluoromethoxy-phenoxy)-pyridine fumaric acid] | 6.99 | 5.01 | 144 to 146 °C
Fc1ccc(Oc2ncccc2OC[C@H]2CCCNC2)cc1Cl.O=C(O)/C=C/C(=O)O [Example 66, (S)-2-(3-chloro-4-fluoro-phenoxy)-3-(piperidin-3-ylmethoxy)-pyridine fumaric acid] | 7.70 | 5.54 | 143 to 144 °C (dec.)
Fc1ccc(Oc2ncccc2OC[C@H]2CCCNC2)c(Cl)c1.O=C(O)/C=C/C(=O)O [Example 71, (S)-2-(2-chloro-4-fluoro-phenoxy)-3-(piperidin-3-ylmethoxy)-pyridine fumaric acid] | 8.70 | 5.18 | 189 to 190 °C (dec.)
O=C(O)/C=C/C(=O)O.c1ccc(CCCOc2ncccc2OC[C@H]2CCCNC2)cc1 [Example 83, (S)-2-(3-phenyl-propoxy)-3-(piperidin-3-ylmethoxy)-pyridine fumaric acid] | 6.68 | 8.00 | 141 to 142 °C (dec.)
Cc1cc(Oc2ncccc2OC[C@H]2CCCNC2)ccc1F.O=C(O)/C=C/C(=O)O [Example 67, (S)-2-(4-fluoro-3-methyl-phenoxy)-3-(piperidin-3-ylmethoxy)-pyridine fumaric acid] | 8.22 | 5.48 | 136 to 138 °C
O=C(O)/C=C/C(=O)O.c1ccc(COc2ncccc2OC[C@H]2CCCNC2)cc1 [Example 77, (S)-2-benzyloxy-3-(piperidin-3-ylmethoxy)-pyridine fumaric acid] | 5.21 | 5.14 | 165 to 167 °C (dec.)
CC(C)c1ccccc1Oc1ncccc1OC[C@H]1CCCNC1.O=C(O)/C=C/C(=O)O [Example 75, (S)-2-(2-isopropyl-phenoxy)-3-(piperidin-3-ylmethoxy)-pyridine fumaric acid] | 6.12 | < 5.00 | 112 to 114 °C (dec.)
Cl.c1ccc(OC2CCCCC2)c(OC[C@H]2CCCNC2)c1 [Example 101, (S)-3-(2-cyclohexyloxy-phenoxymethyl)-piperidine hydrochloride] | 7.70 | < 5.01 | 149 to 150 °C
Fc1ccc(Oc2ncccc2OC[C@@H]2CCCNC2)cc1F.O=C(O)/C=C/C(=O)O [Example 63, (R)-2-(3,4-difluoro-phenoxy)-3-(piperidin-3-ylmethoxy)-pyridine fumaric acid] | 6.85 | 6.10 | 130 to 131 °C
CC(C)Oc1ccccc1Oc1ncccc1OC[C@H]1CCCNC1.O=C(O)/C=C/C(=O)O [Example 74, (S)-2-(2-isopropoxy-phenoxy)-3-(piperidin-3-ylmethoxy)-pyridine fumaric acid] | 7.96 | < 5.00 | 129 to 134 °C (dec.)
Cl.c1ccc(Oc2ccccc2OC[C@H]2CCCNC2)cc1 [Example 43, (S)-3-(2-phenoxy-phenoxymethyl)-piperidine hydrochloride] | 9.15 | 5.64 | 134 to 136 °C
CC(C)COc1ccccc1OCC1CCCNC1.Cl (stereo not drawn) [Example 102, 3-(2-isobutoxy-phenoxymethyl)-piperidine hydrochloride] | 7.49 | 5.40 | 162 °C
O=C(O)/C=C/C(=O)O.c1ccc(CCOc2ncccc2OC[C@H]2CCCNC2)cc1 [Example 82, (S)-2-phenethyloxy-3-(piperidin-3-ylmethoxy)-pyridine fumaric acid] | 6.68 | 5.43 | 146 to 148 °C (dec.)
Cc1ccc(Cl)c(Oc2ncccc2OC[C@H]2CCCNC2)c1.O=C(O)/C=C/C(=O)O [Example 76, (S)-2-(2-chloro-5-methyl-phenoxy)-3-(piperidin-3-ylmethoxy)-pyridine fumaric acid] | 8.40 | 5.32 | 183 to 184 °C (dec.)
Cc1cccc(Oc2ncccc2OC[C@H]2CCCNC2)c1.O=C(O)/C=C/C(=O)O [Example 68, (S)-2-(3-methyl-phenoxy)-3-(piperidin-3-ylmethoxy)-pyridine fumaric acid] | 8.22 | 5.24 | 130 to 132 °C
Fc1cc(Oc2ncccc2OC[C@H]2CCCNC2)ccc1Cl.O=C(O)/C=C/C(=O)O [Example 69, (S)-2-(4-chloro-3-fluoro-phenoxy)-3-(piperidin-3-ylmethoxy)-pyridine fumaric acid] | 8.40 | 5.26 | 150 to 151 °C
Fc1ccc(Oc2ncccc2OC[C@H]2CCCNC2)cc1F.O=C(O)/C=C/C(=O)O [Example 60, (S)-2-(3,4-difluoro-phenoxy)-3-(piperidin-3-ylmethoxy)-pyridine fumaric acid] | 8.70 | 5.18 | 148 to 150 °C
O=C(O)/C=C/C(=O)O.c1ccc(Oc2ncccc2OC[C@@H]2CCCNC2)cc1 [Example 94, (R)-2-phenoxy-3-(piperidin-3-ylmethoxy)-pyridine fumaric acid] | 6.39 | 5.33 | 141 to 143 °C (dec.)
Cc1ccccc1Oc1ncccc1OC[C@H]1CCCNC1.O=C(O)/C=C/C(=O)O [Example 73, (S)-2-(2-methyl-phenoxy)-3-(piperidin-3-ylmethoxy)-pyridine fumaric acid] | 8.40 | < 5.00 | 165 to 167 °C (dec.)
Fc1cccc(F)c1Oc1ncccc1OC[C@H]1CCCNC1.O=C(O)/C=C/C(=O)O [Example 72, (S)-2-(2,6-difluoro-phenoxy)-3-(piperidin-3-ylmethoxy)-pyridine fumaric acid] | 8.70 | 5.48 | 182 to 183 °C (dec.)
Fc1ccc(OC[C@H]2CCCNC2)c(Oc2ccccc2)c1.O=C(O)/C=C/C(=O)O [Example 46, (S)-3-(4-fluoro-2-phenoxy-phenoxymethyl)-piperidine fumaric acid] | 8.70 | 6.49 | 128 to 130 °C
